Assay results reported in patent publication US11878975B2, “Substituted indole compounds useful as TLR inhibitors” (BRISTOL-MYERS SQUIBB COMPANY, priority 2017, dated 2024).
pIC50: −log10 of the molar value.

Key:
Format in all cases: cell-based
human TLR7 = target: T1, human TLR7 (Homo sapiens, UniProt Q9NYK1); assay: TLR7 inhibition reporter assay (HEK-Blue cells, SEAP reporter, gardiquimod stimulation); conditions: HEK-Blue cells overexpressing human TLR7, SEAP reporter, gardiquimod 7.5 μM
T1 construct: host or cells: HEK-Blue cells
T1 sequence (Q9NYK1 27-1049): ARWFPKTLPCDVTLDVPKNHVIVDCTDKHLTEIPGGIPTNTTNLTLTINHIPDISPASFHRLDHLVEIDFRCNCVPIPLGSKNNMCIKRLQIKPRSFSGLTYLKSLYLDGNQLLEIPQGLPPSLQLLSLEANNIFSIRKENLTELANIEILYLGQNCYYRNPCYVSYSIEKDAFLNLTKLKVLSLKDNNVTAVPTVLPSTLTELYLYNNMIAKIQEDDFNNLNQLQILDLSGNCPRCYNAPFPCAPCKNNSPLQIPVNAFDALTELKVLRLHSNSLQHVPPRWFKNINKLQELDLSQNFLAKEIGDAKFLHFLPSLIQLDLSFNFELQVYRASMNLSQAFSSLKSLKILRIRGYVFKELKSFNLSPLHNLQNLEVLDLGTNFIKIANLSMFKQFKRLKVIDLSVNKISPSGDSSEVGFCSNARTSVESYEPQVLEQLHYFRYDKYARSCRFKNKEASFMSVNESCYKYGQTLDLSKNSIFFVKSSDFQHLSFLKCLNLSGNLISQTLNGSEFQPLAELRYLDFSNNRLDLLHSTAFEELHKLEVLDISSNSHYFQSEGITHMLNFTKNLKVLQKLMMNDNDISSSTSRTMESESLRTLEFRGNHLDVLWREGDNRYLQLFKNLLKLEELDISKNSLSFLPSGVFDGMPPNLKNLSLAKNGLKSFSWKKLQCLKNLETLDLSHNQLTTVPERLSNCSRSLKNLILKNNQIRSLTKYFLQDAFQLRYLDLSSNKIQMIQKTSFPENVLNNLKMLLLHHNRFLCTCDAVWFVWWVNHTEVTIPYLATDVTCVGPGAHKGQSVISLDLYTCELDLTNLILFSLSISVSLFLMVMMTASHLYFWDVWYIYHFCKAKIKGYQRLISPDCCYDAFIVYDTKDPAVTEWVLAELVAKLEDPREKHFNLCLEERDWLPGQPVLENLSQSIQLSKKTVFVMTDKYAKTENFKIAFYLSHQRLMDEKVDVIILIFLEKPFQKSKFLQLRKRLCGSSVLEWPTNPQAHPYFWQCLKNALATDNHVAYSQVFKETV
In short: (§1)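 SEAP readout after 22 h agonist exposure at 37 °C; final agonist levels were 7.5 μM gardiquimod (TLR7), 15.9 μM R848 (TLR8) and 5 nM ODN2006 (TLR9). Inhibitors, spanning 0.05 nM to 50 μM final, were applied 30 min beforehand.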

human TLR8 = target: T2, human TLR8 (Homo sapiens, UniProt Q9NR97); assay: TLR8 inhibition reporter assay (HEK-Blue cells, SEAP reporter, R848 stimulation); conditions: HEK-Blue cells overexpressing human TLR8, SEAP reporter, R848 15.9 μM
T2 construct: host or cells: HEK-Blue cells
T2 sequence (Q9NR97 27-1041): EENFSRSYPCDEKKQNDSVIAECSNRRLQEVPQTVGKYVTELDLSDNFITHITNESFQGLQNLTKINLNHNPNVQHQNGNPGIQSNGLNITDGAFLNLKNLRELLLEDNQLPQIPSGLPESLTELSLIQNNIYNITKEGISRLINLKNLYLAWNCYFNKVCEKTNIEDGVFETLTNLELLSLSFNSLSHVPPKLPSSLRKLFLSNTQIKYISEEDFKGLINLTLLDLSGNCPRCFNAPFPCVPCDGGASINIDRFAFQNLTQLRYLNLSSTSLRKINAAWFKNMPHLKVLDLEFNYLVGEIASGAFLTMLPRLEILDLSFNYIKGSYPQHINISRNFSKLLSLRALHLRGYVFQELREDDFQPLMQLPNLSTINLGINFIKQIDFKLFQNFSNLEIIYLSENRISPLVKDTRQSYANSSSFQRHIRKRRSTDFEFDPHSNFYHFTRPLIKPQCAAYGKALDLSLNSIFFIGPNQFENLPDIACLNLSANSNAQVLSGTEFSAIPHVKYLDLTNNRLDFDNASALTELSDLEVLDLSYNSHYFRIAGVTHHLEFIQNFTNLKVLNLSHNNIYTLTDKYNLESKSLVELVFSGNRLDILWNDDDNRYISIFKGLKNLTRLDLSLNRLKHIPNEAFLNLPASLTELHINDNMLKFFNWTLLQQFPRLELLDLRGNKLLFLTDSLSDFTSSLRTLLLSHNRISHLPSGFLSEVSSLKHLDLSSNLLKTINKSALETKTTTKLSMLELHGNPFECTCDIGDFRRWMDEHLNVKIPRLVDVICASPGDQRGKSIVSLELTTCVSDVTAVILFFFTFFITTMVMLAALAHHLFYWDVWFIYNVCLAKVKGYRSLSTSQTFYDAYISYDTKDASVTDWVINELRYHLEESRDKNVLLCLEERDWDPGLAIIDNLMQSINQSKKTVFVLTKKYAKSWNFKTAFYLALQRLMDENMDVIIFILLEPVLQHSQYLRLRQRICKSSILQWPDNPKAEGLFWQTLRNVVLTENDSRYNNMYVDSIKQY
In short: as §1

human TLR9 = target: T3, human TLR9 (Homo sapiens, UniProt Q9NR96); assay: TLR9 inhibition reporter assay (HEK-Blue cells, SEAP reporter, ODN2006 stimulation); conditions: HEK-Blue cells overexpressing human TLR9, SEAP reporter, ODN2006 5 nM
T3 construct: host or cells: HEK-Blue cells
T3 sequence (Q9NR96 26-1032): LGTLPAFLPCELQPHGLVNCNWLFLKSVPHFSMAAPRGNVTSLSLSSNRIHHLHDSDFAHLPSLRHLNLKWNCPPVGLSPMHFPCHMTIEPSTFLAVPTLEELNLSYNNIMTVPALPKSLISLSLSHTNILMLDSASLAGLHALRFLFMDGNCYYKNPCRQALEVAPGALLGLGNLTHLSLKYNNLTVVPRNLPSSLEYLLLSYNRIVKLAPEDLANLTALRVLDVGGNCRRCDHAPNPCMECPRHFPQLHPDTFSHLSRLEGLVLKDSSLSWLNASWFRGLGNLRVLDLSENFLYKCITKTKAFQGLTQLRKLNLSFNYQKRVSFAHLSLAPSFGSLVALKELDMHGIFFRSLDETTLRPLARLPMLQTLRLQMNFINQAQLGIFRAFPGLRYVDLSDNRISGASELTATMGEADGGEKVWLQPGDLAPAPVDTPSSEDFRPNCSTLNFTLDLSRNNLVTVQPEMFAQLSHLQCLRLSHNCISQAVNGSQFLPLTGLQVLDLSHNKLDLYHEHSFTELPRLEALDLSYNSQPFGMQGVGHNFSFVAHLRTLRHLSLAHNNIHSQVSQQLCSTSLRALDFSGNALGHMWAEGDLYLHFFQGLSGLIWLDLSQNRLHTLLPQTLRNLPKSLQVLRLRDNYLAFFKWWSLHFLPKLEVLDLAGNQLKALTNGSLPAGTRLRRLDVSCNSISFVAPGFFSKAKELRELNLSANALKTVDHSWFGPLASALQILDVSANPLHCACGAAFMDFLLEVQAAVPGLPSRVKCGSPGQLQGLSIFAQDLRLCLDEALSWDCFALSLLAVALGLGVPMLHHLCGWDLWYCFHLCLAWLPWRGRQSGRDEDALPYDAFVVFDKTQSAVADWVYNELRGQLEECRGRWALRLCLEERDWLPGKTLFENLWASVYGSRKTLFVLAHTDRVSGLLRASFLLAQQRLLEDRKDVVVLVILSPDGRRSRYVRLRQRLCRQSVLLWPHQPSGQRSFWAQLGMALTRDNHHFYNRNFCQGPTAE
In short: as §1

| pIC50 (human TLR7) | pIC50 (human TLR8) | pIC50 (human TLR9) | SMILES |
| --- | --- | --- | --- |
| 9.66 | 9.23 | 5.78 | COc1cc(-c2[nH]c3ccc(C4CCC(N5CCOCC5)CC4)cc3c2C(C)C)cn2ncnc12 (stereo not drawn) [Example 69] |
| 9.17 | 8.57 | 5.36 | COc1cc(-c2[nH]c3ccc(C4CCC(N5CCNC(=O)C5)CC4)cc3c2C(C)C)cn2ncnc12 (stereo not drawn) [Example 71] |
| 9.49 | 9.24 | 5.80 | COc1cc(-c2[nH]c3ccc(C4CCC(N5CC6(COC6)C5)CC4)cc3c2C(C)C)cn2ncnc12 (stereo not drawn) [Example 73] |
| 8.52 | 7.89 | 4.61 | COc1cc(-c2[nH]c3ccc(C4CCC(N(C)CC(F)F)CC4)cc3c2C(C)C)cn2ncnc12 (stereo not drawn) [Example 74] |
| 9.06 | 8.70 | 5.32 | COc1cc(-c2[nH]c3ccc(C4CCC(N(C)CCC(F)(F)F)CC4)cc3c2C(C)C)cn2ncnc12 (stereo not drawn) [Example 75] |
| 9.00 | 8.24 | 5.65 | COc1cc(-c2[nH]c3ccc(C4CCC(N5CCOCC5)CC4)cc3c2C(C)C)cn2ncnc12 (stereo not drawn) [Example 76] |
| 9.00 | 8.51 | 5.72 | COc1cc(-c2[nH]c3ccc(C4CCC(N5CCC5)CC4)cc3c2C(C)C)cn2ncnc12 (stereo not drawn) [Example 77] |
| 8.52 | 7.49 | 4.78 | COc1cc(-c2[nH]c3ccc(C4CCC(N5CCNC(=O)C5)CC4)cc3c2C(C)C)cn2ncnc12 (stereo not drawn) [Example 78] |
| 9.07 | 8.68 | 5.84 | COc1cc(-c2[nH]c3ccc(C4CCC(N5CC6(COC6)C5)CC4)cc3c2C(C)C)cn2ncnc12 (stereo not drawn) [Example 80] |
| 7.77 | 6.98 | 4.59 | COc1cc(-c2[nH]c3ccc(C4CCC(N(C)CC(F)F)CC4)cc3c2C(C)C)cn2ncnc12 (stereo not drawn) [Example 81] |
| 8.15 | 7.64 | 5.24 | COc1cc(-c2[nH]c3ccc(C4CCC(N(C)CCC(F)(F)F)CC4)cc3c2C(C)C)cn2ncnc12 (stereo not drawn) [Example 82] |
| 9.49 | 9.20 | 5.72 | CCN(C)C1CCC(c2ccc3[nH]c(-c4cn5ncnc5c(C)c4C)c(C(C)C)c3c2)CC1 (stereo not drawn) [Example 87] |
| 8.70 | 8.33 | 5.70 | CCN(C)C1CCC(c2ccc3[nH]c(-c4cn5ncnc5c(C)c4C)c(C(C)C)c3c2)CC1 (stereo not drawn) [Example 88] |
| 9.64 | 9.24 | 5.88 | CNC1CCC(c2ccc3[nH]c(-c4cn5ncnc5c(C)c4C)c(C(C)C)c3c2)CC1 (stereo not drawn) [Example 89] |
| 9.32 | 8.77 | 5.75 | COc1cc(-c2[nH]c3ccc(C4CCC(NC5COC5)CC4)cc3c2C(C)C)cn2ncnc12 (stereo not drawn) [Example 90] |
| 9.07 | 8.57 | 5.57 | CNC1CCC(c2ccc3[nH]c(-c4cn5ncnc5c(C)c4C)c(C(C)C)c3c2)CC1 (stereo not drawn) [Example 91] |
| 8.70 | 8.44 | 5.74 | Cc1c(-c2[nH]c3ccc(C4CCC(N5CC6(COC6)C5)CC4)cc3c2C(C)C)cn2ncnc2c1C (stereo not drawn) [Example 95] |
| 8.70 | 8.48 | 5.76 | COc1cc(-c2[nH]c3ccc(C4CCC(N5CC6(COC6)C5)CC4)cc3c2C(C)C)cn2ncnc12 (stereo not drawn) [Example 96] |
| 8.15 | 7.28 | 4.82 | COc1cc(-c2[nH]c3ccc(C4CCC(N(C)OC)CC4)cc3c2C(C)C)cn2ncnc12 (stereo not drawn) [Example 99] |
| 7.49 | 6.37 | 4.84 | COc1cc(-c2[nH]c3ccc(C4CCC(N(C)OC)CC4)cc3c2C(C)C)cn2ncnc12 (stereo not drawn) [Example 100] |
| 9.64 | 9.15 | 5.72 | Cc1cc(-c2[nH]c3ccc(C4CCC(N5CCOCC5)CC4)cc3c2C(C)C)cn2ncnc12 (stereo not drawn) [Example 102] |
| 8.70 | 8.13 | 5.39 | Cc1cc(-c2[nH]c3ccc(C4CCC(N5CCOCC5)CC4)cc3c2C(C)C)cn2ncnc12 (stereo not drawn) [Example 103] |
| 8.52 | 8.19 | 5.19 | Cc1cc(-c2[nH]c3ccc(C4CCC(NCC(C)(C)O)CC4)cc3c2C(C)C)cn2ncnc12 (stereo not drawn) [Example 104] |
| 9.12 | 8.74 | 5.68 | Cc1c(-c2[nH]c3ccc(C4CCC(N(C)C)CC4)cc3c2C(C)C)cn2ncnc2c1C (stereo not drawn) [Example 105] |
| 9.17 | 9.55 | 5.86 | Cc1c(-c2[nH]c3ccc(C4CCC(NCC(C)(C)O)CC4)cc3c2C(C)C)cn2ncnc2c1C (stereo not drawn) [Example 106] |
| 9.66 | 8.82 | 5.86 | COc1cc(-c2[nH]c3ccc(C4CCC(NCC(N)=O)CC4)cc3c2C(C)C)cn2ncnc12 (stereo not drawn) [Example 107] |
| 9.08 | 8.39 | 5.80 | COc1cc(-c2[nH]c3ccc(C4CCC(NCC(N)=O)CC4)cc3c2C(C)C)cn2ncnc12 (stereo not drawn) [Example 109] |
